Reference: patent US20060246106A1, “Infection resistant medical implants” (priority 2005, published 2006)
Values after ≈ are worked out from the molar mass of the structure shown. Read-outs that look alike come from different tables or passages of the source. One block for each compound: values may come before it.

Tests used:
Escherichia coli = test: MIC/MBC, antibiotic dilutions in Mueller-Hinton Broth; assay type: cell-based; conditions: E. coli, antibiotic alone
Protocol: The term “MIC” refers to the lowest concentration of antibiotic that inhibits in vitro bacterial growth. The term “MBC” refers to the lowest concentration of antibiotic that totally kills 99.9% of the inoculum. The principle of the test is to add dilutions of an antibiotic to Mueller-Hinton Broth and a standard concentration of the inoculum. Tubes are incubated overnight and read visually for turbidity. The lowest concentration showing no visible growth is the MIC. To establish the MBC broth cultures showing no visible growth are sub-cultured onto appropriate agar and incubated to determine if the organism has been killed.

[1] = elution rate: rifampicin/tobramycin content remaining on the graft; assay type: in vivo; conditions: graft harvested from dog, one line per dog; for concentration at 7 days / concentration at 14 days / concentration at 21 days: dog, explanted graft, other: graft implanted end to end in the infrarenal aorta
Protocol: Two grafts were harvested after week 1, two grafts after week 2 and the final two grafts were harvested after week 3. Immediately after harvesting, the grafts were prepared for antibiotic analysis. […] The graft samples required the rifampicin to be extracted from the graft material. The extraction procedure was as follows. A volume of methanol equivalent to 3 times the dry weight of the graft was added. […] The supernatant was then injected directly into the HPLC. […] The graft samples required the tobramycin to be extracted from the graft material. The extraction procedure was as follows. […] The supernatant was then injected directly into the PFIA. The extraction was repeated on the same graft sample to ensure that all the tobramycin had been extracted.

[2] = dog, in vivo
Protocol: (§1) Serum samples were collected from the dogs at the same time as the samples for liver and kidney function tests.
(§2) The analytical method for graft samples and serum samples was identical. The method used a HPLC system with a Hypersil 5 ODS column with UV detection at a wavelength of 254 nm. The mobile phase used was a 70:30 0.2M phosphate buffer pH 6.0: acetonitrile. The limit of detection for this method is 0.1 mg/Kg graft or 0.1 mg/litre serum.
(§3) These samples were mixed 50:50 with methanol and left to stand for 1 minute. After this time the solution was centrifuged for 5 minutes at maximum speed in a Microcentaur centrifuge. The supernatant was then used for analysis.
(§4) The analytical method for serum samples and graft samples was identical. The technique used to measure the tobramycin was Polarisation FluoroImmuno Assay (PFIA) using an Abbott FLX instrument using the reverse dilution protocol with a sample volume of 5 μl. The limit of detection for this method is 0.4 mg/Kg graft or 0.4 mg/litre serum.
(§5) The serum samples were analysed directly using the Abbot FLX instrument.

in vivo = conditions: dog
Protocol: as §1, §2, §3, §4, §5

MIC (Escherichia coli): 16.2 µg/mL (≈ 19.7 µM)
concentration at 7 days ([1]; Implant Duration 7 Days, read-out: Rifampicin Content, 1st Extraction): 890 ng/g
concentration at 7 days ([1]; Implant Duration 7 Days, read-out: Rifampicin Content, 2nd Extraction): < 100 ng/g
concentration at 7 days ([1]; Implant Duration 7 Days, read-out: Rifampicin Content, Total): 890 ng/g
concentration at 14 days ([1]; Implant Duration 14 Days, read-out: Rifampicin Content, 1st Extraction): 730 ng/g
concentration at 14 days ([1]; Implant Duration 14 Days, read-out: Rifampicin Content, 2nd Extraction): < 100 ng/g
concentration at 14 days ([1]; Implant Duration 14 Days, read-out: Rifampicin Content, Total): 730 ng/g
concentration at 21 days ([1]; Implant Duration 21 Days, read-out: Rifampicin Content, 1st Extraction): 340 ng/g
concentration at 21 days ([1]; Implant Duration 21 Days, read-out: Rifampicin Content, 2nd Extraction): < 100 ng/g
concentration at 21 days ([1]; Implant Duration 21 Days, read-out: Rifampicin Content, Total): 340 ng/g
Rifampicin Content, 1st Extraction ([1]; Implant Duration 7 Days): 0.94 mg/Kg graft
Rifampicin Content, 2nd Extraction ([1]; Implant Duration 7 Days): <0.1 mg/Kg graft
Rifampicin Content, Total ([1]; Implant Duration 7 Days): 0.94 mg/Kg graft
Rifampicin Content, 1st Extraction ([1]; Implant Duration 14 Days): 1.24 mg/Kg graft
Rifampicin Content, 2nd Extraction ([1]; Implant Duration 14 Days): <0.1 mg/Kg graft
Rifampicin Content, Total ([1]; Implant Duration 14 Days): 1.24 mg/Kg graft
Rifampicin Content, 1st Extraction ([1]; Implant Duration 21 Days): 0.52 mg/Kg graft
Rifampicin Content, 2nd Extraction ([1]; Implant Duration 21 Days): <0.1 mg/Kg graft
Rifampicin Content, Total ([1]; Implant Duration 21 Days): 0.52 mg/Kg graft
quantity of rifampicin equated to an average human ([2]; 1 day): 1.15 mg
concentration at 1 day (in vivo): 230 ng/mL
concentration at 3 day (in vivo): < 100 ng/mL
concentration at 7 day (in vivo): < 100 ng/mL
concentration at 14 day (in vivo): < 100 ng/mL
concentration at 21 day (in vivo): < 100 ng/mL
SMILES: CO[C@H]1/C=C/O[C@@]2(C)Oc3c(C)c(O)c4c(O)c(c(/C=N/N5CCN(C)CC5)c(O)c4c3C2=O)NC(=O)/C(C)=C\C=C\[C@H](C)[C@H](O)[C@@H](C)[C@@H](O)[C@@H](C)[C@H](OC(C)=O)[C@@H]1C [Rifampicin, rifampicin]
MBC (Escherichia coli): 32.5 µg/mL (≈ 39.5 µM)

MIC (Escherichia coli): 3.12 µg/mL (≈ 6.67 µM)
concentration at 7 days ([1]; Implant Duration 7 Days, read-out: Tobramycin Content, 1st Extraction): 4800 ng/g
concentration at 7 days ([1]; Implant Duration 7 Days, read-out: Tobramycin Content, 2nd Extraction): < 400 ng/g
concentration at 7 days ([1]; Implant Duration 7 Days, read-out: Tobramycin Content, Total): 4800 ng/g
concentration at 14 days ([1]; Implant Duration 14 Days, read-out: Tobramycin Content, 1st Extraction): 510 ng/g
concentration at 14 days ([1]; Implant Duration 14 Days, read-out: Tobramycin Content, 2nd Extraction): < 400 ng/g
concentration at 14 days ([1]; Implant Duration 14 Days, read-out: Tobramycin Content, Total): 510 ng/g
concentration at 21 days ([1]; Implant Duration 21 Days, read-out: Tobramycin Content, 1st Extraction): < 400 ng/g
concentration at 21 days ([1]; Implant Duration 21 Days, read-out: Tobramycin Content, 2nd Extraction): < 400 ng/g
concentration at 21 days ([1]; Implant Duration 21 Days, read-out: Tobramycin Content, Total): < 400 ng/g
Tobramycin Content, 1st Extraction ([1]; Implant Duration 7 Days): 3.96 mg/Kg graft
Tobramycin Content, 2nd Extraction ([1]; Implant Duration 7 Days): <0.4 mg/Kg graft
Tobramycin Content, Total ([1]; Implant Duration 7 Days): 3.96 mg/Kg graft
Tobramycin Content, 1st Extraction ([1]; Implant Duration 14 Days): <0.4 mg/Kg graft
Tobramycin Content, 2nd Extraction ([1]; Implant Duration 14 Days): <0.4 mg/Kg graft
Tobramycin Content, Total ([1]; Implant Duration 14 Days): <0.4 mg/Kg graft
Tobramycin Content, 1st Extraction ([1]; Implant Duration 21 Days): <0.4 mg/Kg graft
Tobramycin Content, 2nd Extraction ([1]; Implant Duration 21 Days): <0.4 mg/Kg graft
Tobramycin Content, Total ([1]; Implant Duration 21 Days): <0.4 mg/Kg graft
tobramycin present in the serum of the test dogs [2]: no detectable amount
Tobramycin Content (serum) ([2]; 1 day): <0.4 mg/litre serum
Tobramycin Content (serum) ([2]; 3 day): <0.4 mg/litre serum
Tobramycin Content (serum) ([2]; 7 day): <0.4 mg/litre serum
Tobramycin Content (serum) ([2]; 14 day): <0.4 mg/litre serum
Tobramycin Content (serum) ([2]; 21 day): <0.4 mg/litre serum
concentration at 1 day (in vivo): < 400 ng/mL
concentration at 3 day (in vivo): < 400 ng/mL
concentration at 7 day (in vivo): < 400 ng/mL
concentration at 14 day (in vivo): < 400 ng/mL
concentration at 21 day (in vivo): < 400 ng/mL
SMILES: NC[C@H]1O[C@H](O[C@H]2[C@H](O)[C@@H](O[C@H]3O[C@H](CO)[C@@H](O)[C@H](N)[C@H]3O)[C@H](N)C[C@@H]2N)[C@H](N)C[C@@H]1O [Tobramycin, tobramycin]
MBC (Escherichia coli): 6.25 µg/mL (≈ 13.4 µM)
